The target in assay [1] is T1, GABA-A receptor; anion channel (Rattus norvegicus) (UniProt O09028+P15431+P18506+P18508+P19969+P20236+P23574+P23576+P28471+P28473+P30191+P62813+P63079+P63138+Q91ZM7+Q9ES14). The conditions noted are these: Membrane, 0.01 uM.
Description: Percent displacement of [3H]GABA at Gamma-aminobutyric acid receptor of rat brain membranes at 0.01 uM
Assay [2] addresses GABA transporter (Rattus norvegicus) (UniProt P31647+P23978+P31646+P48056). Kind of assay: Percent inhibition of high affinity [3H]GABA uptake into rat brain synaptosomes at 100 uM. The format is functional, subcellular.
For assay [3], the target named is T1, GABA-A receptor; anion channel (Rattus norvegicus). Kind of assay: Percent displacement of [3H]GABA at Gamma-aminobutyric acid receptor of rat brain membranes at 100 uM. The conditions noted are these: Membrane. Format: cell membranes.

Here are results for 4 molecules from ChEMBL document CHEMBL1121865, “Epimeric cis-decahydroquinoline-5-carboxylic acids: effects on gamma-aminobutyric acid uptake and receptor binding in vitro” (J Med Chem, 1981).

GABA transporter (Rattus norvegicus), sequence (P31646 whole entry, looked up): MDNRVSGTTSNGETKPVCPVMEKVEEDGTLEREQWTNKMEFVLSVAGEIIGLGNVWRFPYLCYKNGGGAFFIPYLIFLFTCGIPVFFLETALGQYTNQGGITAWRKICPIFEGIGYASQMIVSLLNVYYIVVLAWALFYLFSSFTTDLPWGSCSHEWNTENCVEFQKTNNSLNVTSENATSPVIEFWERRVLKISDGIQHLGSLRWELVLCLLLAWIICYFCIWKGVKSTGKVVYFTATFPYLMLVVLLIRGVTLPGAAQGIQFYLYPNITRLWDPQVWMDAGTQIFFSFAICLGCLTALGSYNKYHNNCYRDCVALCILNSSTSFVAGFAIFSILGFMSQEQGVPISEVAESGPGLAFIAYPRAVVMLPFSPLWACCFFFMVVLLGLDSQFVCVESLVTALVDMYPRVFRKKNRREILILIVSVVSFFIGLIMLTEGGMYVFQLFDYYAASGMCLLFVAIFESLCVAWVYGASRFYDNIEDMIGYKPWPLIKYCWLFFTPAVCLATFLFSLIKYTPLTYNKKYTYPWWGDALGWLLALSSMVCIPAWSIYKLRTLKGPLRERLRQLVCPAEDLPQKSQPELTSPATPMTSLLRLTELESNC
GABA transporter (Rattus norvegicus), sequence (P31647 whole entry, looked up): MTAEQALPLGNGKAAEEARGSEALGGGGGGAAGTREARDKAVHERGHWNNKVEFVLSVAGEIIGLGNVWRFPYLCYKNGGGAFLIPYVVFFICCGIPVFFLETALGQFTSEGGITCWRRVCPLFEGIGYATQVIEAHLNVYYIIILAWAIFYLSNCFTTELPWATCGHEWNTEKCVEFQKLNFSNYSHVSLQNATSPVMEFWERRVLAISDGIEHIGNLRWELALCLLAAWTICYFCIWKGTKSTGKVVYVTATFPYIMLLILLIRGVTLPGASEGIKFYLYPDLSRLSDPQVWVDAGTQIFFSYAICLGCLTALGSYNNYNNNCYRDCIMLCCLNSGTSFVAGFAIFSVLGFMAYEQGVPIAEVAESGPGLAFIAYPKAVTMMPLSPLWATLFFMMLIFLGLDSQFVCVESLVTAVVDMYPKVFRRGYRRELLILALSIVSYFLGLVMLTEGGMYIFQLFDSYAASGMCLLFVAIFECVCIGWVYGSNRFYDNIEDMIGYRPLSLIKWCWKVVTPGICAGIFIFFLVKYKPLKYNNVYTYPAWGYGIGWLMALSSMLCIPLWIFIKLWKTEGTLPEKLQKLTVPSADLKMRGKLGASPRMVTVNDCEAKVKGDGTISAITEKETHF
GABA transporter (Rattus norvegicus), sequence (P48056 whole entry, looked up): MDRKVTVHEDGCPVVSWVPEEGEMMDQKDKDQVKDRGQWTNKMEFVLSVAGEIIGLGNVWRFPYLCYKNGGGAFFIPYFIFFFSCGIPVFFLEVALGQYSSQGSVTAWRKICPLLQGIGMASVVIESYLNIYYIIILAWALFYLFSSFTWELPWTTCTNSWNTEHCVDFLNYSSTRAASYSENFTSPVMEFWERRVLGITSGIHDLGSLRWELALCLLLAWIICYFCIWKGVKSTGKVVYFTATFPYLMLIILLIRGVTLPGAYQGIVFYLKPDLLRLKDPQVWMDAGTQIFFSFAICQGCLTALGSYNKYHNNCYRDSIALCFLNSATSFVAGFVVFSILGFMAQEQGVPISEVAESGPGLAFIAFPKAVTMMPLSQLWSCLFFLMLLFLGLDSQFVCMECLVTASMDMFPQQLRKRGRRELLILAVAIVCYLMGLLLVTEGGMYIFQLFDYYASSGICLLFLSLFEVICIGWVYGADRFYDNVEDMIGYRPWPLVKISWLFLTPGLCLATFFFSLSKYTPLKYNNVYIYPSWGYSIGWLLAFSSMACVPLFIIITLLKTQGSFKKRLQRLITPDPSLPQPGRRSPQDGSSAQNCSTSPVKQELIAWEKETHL

In assay [1], `NCCCC(=O)O` registered a Displacement of 48%. As for `NCc1cc(O)no1`, in assay [1], the Displacement worked out at 86%. In assay [2], `O=C(O)C1CCCC2NCCCC21` (cis isomer) came in with an inhibition of 20%. The same molecule yielded a Displacement in assay [3] of 17%. As for `O=C(O)C1CCCC2NCCCC21` (stereo in doubt), the inhibition in assay [2] is below 1%. The molecule also displayed a Displacement in assay [3] below 5%.

For orientation: inhibition means how much of the control response was suppressed.
